Reference: US8895585B2, “Nicotinamide derivative or salt thereof” (FUJIFILM Corporation, priority 2010, dated 2014)

Molecular target: T1, glutathione S-transferase (GST)-fused full-length human Syk protein (Homo sapiens, UniProt P43405)
T1 construct: (GST)-fused full-length human Syk protein; GST (glutathione S-transferase); purchased Carna Biosciences
Test: Syk enzyme assay
Format: biochemical
Settings: Syk enzyme assay, Test Example 1; read-out: IC50 of Syk-inhibitory activity
Method in brief: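 Baculovirus-expressed enzyme (1.2 ng) was preincubated with compound in HEPES pH 7.0/MgCl2/DTT buffer, 2 min shaking then 13 min at room temperature. Biotin-EDPDYEWPSA-NH2 (0.4 μM final) and ATP (27 μM final) were added for 40 min at room temperature. EDTA stop, streptavidin-XL/PT66-K TR-FRET at 615/665 nm gave IC50.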

| IC50 [nM] | Compound |
| --- | --- |
| < 10 | COc1ccc(-c2cc(Nc3nc(N[C@@H](CN)CC(C)C)c(F)cc3C(N)=O)ccn2)cc1 [Example 006-326, (R)-6-((1-amino-4-methylpentan-2-yl)amino)-5-fluoro-2-((2-(4-methoxyphenyl)pyridin-4-yl)amino)nicotinamide] |
| < 10 | COc1cccc(-c2cc(Nc3nc(N[C@@H](CN)CC(C)C)c(F)cc3C(N)=O)ccn2)c1F [Example 006-327, (R)-6-((1-amino-4-methylpentan-2-yl)amino)-5-fluoro-2-((2-(2-fluoro-3-methoxyphenyl)pyridin-4-yl)amino)nicotinamide] |
| < 10 | COc1ccc(-c2cc(Nc3nc(N[C@@H](CN)CC(C)C)c(F)cc3C(N)=O)ccn2)c(F)c1 [Example 006-328, (R)-6-((1-amino-4-methylpentan-2-yl)amino)-5-fluoro-2-((2-(2-fluoro-4-methoxyphenyl)pyridin-4-yl)amino)nicotinamide] |
| 10 to 50 | NC[C@H](Nc1nc(Nc2cncc(-c3ccccc3)c2)c(C(N)=O)cc1F)C1CC1 [Example 006-337, (R)-6-((2-amino-1-cyclopropylethyl)amino)-5-fluoro-2-((5-phenylpyridin-3-yl)amino)nicotinamide] |
| 10 to 50 | CCCC[C@H](CN)Nc1nc(Nc2cccc3c2cnn3C)c(C(N)=O)cc1F [Example 006-339, (R)-6-((1-aminohexan-2-yl)amino)-5-fluoro-2-((1-methyl-1H-indazol-4-yl)amino)nicotinamide] |
| < 10 | CCCC[C@H](CN)Nc1nc(Nc2cncc(C3CC3)c2)c(C(N)=O)cc1F [Example 006-340, (R)-6-((1-aminohexan-2-yl)amino)-2-((5-cyclopropylpyridin-3-yl)amino)-5-fluoronicotinamide] |
| 10 to 50 | CCCC[C@H](CN)Nc1nc(Nc2cnc(C)c(C)c2)c(C(N)=O)cc1F [Example 006-341, (R)-6-((1-aminohexane-2-yl)amino)-2-((5,6-dimethylpyridin-3-yl)amino)-5-fluoronicotinamide] |
| 10 to 50 | C[C@H](N)[C@@H](CC1CC1)Nc1nc(Nc2ccc3nccnc3c2)c(C(N)=O)cc1F [Example 006-347, 6-(((2R,3S)-3-amino-1-cyclopropylbutan-2-yl)amino)-5-fluoro-2-((quinoxalin-6-yl)amino)nicotinamide] |
| < 10 | COc1cc(Nc2nc(N[C@H](CC3CC3)[C@H](C)N)c(F)cc2C(N)=O)cc(OC)n1 [Example 006-349, 6-(((2R,3S)-3-amino-1-cyclopropylbutan-2-yl)amino)-2-((2,6-dimethoxypyridin-4-yl)amino)-5-fluoronicotinamide] |
| 50 to 100 | CC[C@H](N)[C@@H](CC)Nc1nc(Nc2ccc3cnn(C)c3c2)c(C(N)=O)cc1F [Example 006-366, 6-(((3R,4S)-4-aminohexan-3-yl)amino)-5-fluoro-2-((1-methyl-1H-indazol-6-yl)amino)nicotinamide] |
| 10 to 50 | CC[C@H](N)[C@@H](CC)Nc1nc(Nc2cccc3c2cnn3C)c(C(N)=O)cc1F [Example 006-367, 6-(((3R,4S)-4-aminohexan-3-yl)amino)-5-fluoro-2-((1-methyl-1H-indazol-4-yl)amino)nicotinamide] |
| 10 to 50 | CC[C@H](N)[C@@H](CC)Nc1nc(Nc2cncc(F)c2)c(C(N)=O)cc1F [Example 006-382, 6-(((3R,4S)-4-aminohexan-3-yl)amino)-5-fluoro-2-((5-fluoropyridin-3-yl)amino)nicotinamide] |
| 10 to 50 | CC[C@H](N)[C@@H](CC)Nc1nc(Nc2cnc(OC)c(-n3nccn3)c2)c(C(N)=O)cc1F [Example 006-391, 6-(((3R,4S)-4-aminohexan-3-yl)amino)-5-fluoro-2-((6-methoxy-5-(2H-1,2,3-triazol-2-yl)pyridin-3-yl)amino)nicotinamide] |
| 10 to 50 | COc1ncc(Nc2nc(N[C@H](CC3CC3)[C@H](C)N)c(F)cc2C(N)=O)cc1-n1nccn1 [Example 006-393, 6-(((2R,3S)-3-amino-1-cyclopropylbutan-2-yl)amino)-5-fluoro-2-((6-methoxy-5-(2H-1,2,3-triazol-2-yl)pyridin-3-yl)amino)nicotinamide] |
| < 10 | CCC[C@@H](Nc1nc(Nc2ccc3c(cnn3CC)c2)c(C(N)=O)cc1F)[C@@H](N)CC [Example 006-399, 6-(((3S,4R)-3-aminoheptan-4-yl)amino)-2-((1-ethyl-1H-indazol-5-yl)amino)-5-fluoronicotinamide] |
| < 10 | CCC[C@@H](Nc1nc(Nc2cc(OC)nc(OC)c2)c(C(N)=O)cc1F)[C@@H](N)CC [Example 006-413, 6-(((3S,4R)-3-aminoheptan-4-yl)amino)-2-((2,6-dimethoxypyridin-4-yl)amino)-5-fluoronicotinamide] |
| < 10 | CC(C)C[C@@H](Nc1nc(Nc2ccc3c(cnn3CCF)c2)c(C(N)=O)cc1F)[C@H](C)N [Example 006-419, 6-(((2S,3R)-2-amino-5-methylhexan-3-yl)amino)-5-fluoro-2-((1-(2-fluoroethyl)-1H-indazol-5-yl)amino)nicotinamide] |

| IC50 [nM] | Compound |
| --- | --- |
| 50 to 100 | CCCC[C@H](CN)Nc1nc(Nc2ccc3c(cnn3CC(F)F)c2)c(C(N)=O)cc1F [Example 006-421, (R)-6-((1-aminohexan-2-yl)amino)-2-((1-(2,2-difluoroethyl)-1H-indazol-5-yl)amino)-5-fluoronicotinamide] |
| < 10 | CC(C)C[C@H](CN)Nc1nc(Nc2ccc3c(cnn3CC(F)F)c2)c(C(N)=O)cc1F [Example 006-422, (R)-6-((1-amino-4-methylpentan-2-yl)amino)-2-((1-(2,2-difluoroethyl)-1H-indazol-5-yl)amino)-5-fluoronicotinamide] |
| 10 to 50 | CC[C@@H](Nc1nc(Nc2ccc3c(cnn3CC(F)F)c2)c(C(N)=O)cc1F)[C@H](C)N [Example 006-423, 6-(((2S,3R)-2-aminopentan-3-yl)amino)-2-((1-(2,2-difluoroethyl)-1H-indazol-5-yl)amino)-5-fluoronicotinamide] |
| 10 to 50 | CCC[C@@H](Nc1nc(Nc2ccc3c(cnn3CC(F)F)c2)c(C(N)=O)cc1F)[C@H](C)N [Example 006-424, 6-(((2S,3R)-2-aminohexan-3-yl)amino)-2-((1-(2,2-difluoroethyl)-1H-indazol-5-yl)amino)-5-fluoronicotinamide] |
| 10 to 50 | CCCC[C@@H](Nc1nc(Nc2ccc3c(cnn3CC(F)F)c2)c(C(N)=O)cc1F)[C@H](C)N [Example 006-425, 6-(((2S,3R)-2-aminoheptan-3-yl)amino)-2-((1-(2,2-difluoroethyl)-1H-indazol-5-yl)amino)-5-fluoronicotinamide] |
| 100 to 1000 | C[C@H](N)[C@@H](CC1CC1)Nc1nc(Nc2ccc3c(cnn3CC(F)F)c2)c(C(N)=O)cc1F [Example 006-426, 6-(((2R,3S)-3-amino-1-cyclopropylbutan-2-yl)amino)-2-((1-(2,2-difluoroethyl)-1H-indazol-5-yl)amino)-5-fluoronicotinamide] |
| 10 to 50 | CCn1ncc2ccc(Nc3nc(N[C@H](CC4CC4)[C@H](C)N)c(F)cc3C(N)=O)cc21 [Example 006-436] |
| 10 to 50 | C[C@H](N)[C@@H](CC1CC1)Nc1nc(Nc2ccc3cnn(CCF)c3c2)c(C(N)=O)cc1F [Example 006-437, 6-(((2R,3S)-3-amino-1-cyclopropylbutan-2-yl)amino)-5-fluoro-2-((1-(2-fluoroethyl)-1H-indazol-6-yl)amino)nicotinamide] |
| 10 to 50 | C[C@H](N)[C@@H](CC1CC1)Nc1nc(Nc2ccc3cnn(CC(F)F)c3c2)c(C(N)=O)cc1F [Example 006-438, 6-(((2R,3S)-3-amino-1-cyclopropylbutan-2-yl)amino)-2-((1-(2,2-difluoroethyl)-1H-indazol-6-yl)amino)-5-fluoronicotinamide] |
| 10 to 50 | C[C@H](N)[C@@H](CC1CC1)Nc1nc(Nc2ccc3c(c2)c(F)nn3C)c(C(N)=O)cc1F [Example 006-439, 6-(((2R,3S)-3-amino-1-cyclopropylbutan-2-yl)amino)-5-fluoro-2-((3-fluoro-1-methyl-1H-indazol-5-yl)amino)nicotinamide] |
| 10 to 50 | C[C@H](N)[C@@H](CC1CC1)Nc1nc(Nc2ccc3c(F)nn(C)c3c2)c(C(N)=O)cc1F [Example 006-440, 6-(((2R,3S)-3-amino-1-cyclopropylbutan-2-yl)amino)-5-fluoro-2-((3-fluoro-1-methyl-1H-indazol-6-yl)amino)nicotinamide] |
| 10 to 50 | CCn1nc(F)c2ccc(Nc3nc(N[C@H](CC4CC4)[C@H](C)N)c(F)cc3C(N)=O)cc21 [Example 006-441, 6-(((2R,3S)-3-amino-1-cyclopropylbutan-2-yl)amino)-2-((1-ethyl-3-fluoro-1H-indazol-6-yl)amino)-5-fluoronicotinamide] |
| 50 to 100 | NC(=O)c1cc(F)c(N[C@@H]2CCCC[C@@H]2N)nc1Nc1cnc(-n2cccn2)c(-n2cccn2)c1 [Example 006-448, 6-(((1R,2S)-2-aminocyclohexyl)amino)-2-((5,6-di(1H-pyrazol-1-yl)pyridin-3-yl)amino)-5-fluoronicotinamide] |
| 100 to 1000 | NC(=O)c1cc(F)c(N[C@@H]2CCCC[C@@H]2N)nc1Nc1cnc(-n2cccn2)c(-n2ccnn2)c1 [Example 006-450, 2-((6-(1H-pyrazol-1-yl)-5-(1H-1,2,3-triazol-1-yl)pyridin-3-yl)amino)-6-(((1R,2S)-2-aminocyclohexyl)amino)-5-fluoronicotinamide] |
| < 10 | CCn1nc(C(C)C)c2cc(Nc3nc(N[C@@H]4CCCC[C@@H]4N)c(F)cc3C(N)=O)ccc21 [Example 006-462, 6-(((1R,2S)-2-aminocyclohexyl)amino)-2-((1-ethyl-3-isopropyl-1H-indazol-5-yl)amino)-5-fluoronicotinamide] |
| < 10 | COCCn1nc(C(C)C)c2cc(Nc3nc(N[C@@H]4CCCC[C@@H]4N)c(F)cc3C(N)=O)ccc21 [Example 006-463, 6-(((1R,2S)-2-aminocyclohexyl)amino)-5-fluoro-2-((3-isopropyl-1-(2-methoxyethyl)-1H-indazol-5-yl)amino)nicotinamide] |
